For experiment [1], the system named is lipoperoxide levels (malonyldialdehyde, MDA). Description: Lipoperoxide levels (malonyldialdehyde) in plasma, liver, brain and heart of rats on the diet. In kind it is in vivo, rat. To be noted: rats after 20 day diet treatment. As to the method: (§1) In the experimental tests, the rats were given a high-calorie, high-triglyceride, high-cholesterol diet. The following parameters were evaluated after twenty days treatment: • 1) effect of the compositions on the lipoperoxide levels in the plasma, liver, brain and heart; • 2) effect of the compositions on variations in body weight; • 3) effect of the compositions on variations in membrane fluidity of ghost erythrocytes and plasma platelets; • 4) effect of the compositions on the functionality of the hepatic mitochondria, evaluated by measuring: a) O2 consumption; b) reduced glutathione; c) the potential of the mitochondrial membranes; • 5) effect of the compositions on plasma levels of total cholesterol and HDL-cholesterol; • 6) effect of the compositions on plasma levels of total triglycerides.
(§2) 80 Male rats weighing 150-200 g each were used. The animals were divided into 8 groups of 10 animals: • 1st group: control (C); 10 animals (control at time 0) were used as is, and 10 were given a standard high-calorie, high-fat, high-cholesterol diet for 20 days, consisting of: • casein: 20%; mixture of trace elements and mineral salts: 3.5%; mixture of vitamins: 0.1%; choline bitartrate: 0.2%; cellulose: 2%; cholesterol: 0.5%; sodium cholate: 0.25%; saccharose: 58.44%, lard: 10.0% and olive oil: 4.9%. • 2nd group: treated with N-oleoyl-ethanolamine as such (NOE); the animals were given the same diet as the controls for 20 days, except that 50 mg of NOE replaced the same quantity of olive oil (olive oil used: 4.85%). • 3rd group: treated with N-oleoyl-phosphatidylethanolamine prepared as described in example 1 (NOPE); the animals were given the same diet as the controls for 20 days, except that 50 mg of NOPE (prepared as described in example 1) replaced the same quantity of olive oil (olive oil used: 4.85%). • 4th group: treated with N-oleoyl-ethanolamine+phosphatidic acid prepared as described in example 2: (NOE+PA); the animals were given the same diet as the controls for 20 days, except that 400 mg of the preparation described in example 2 (containing ˜50 mg of NOE and 150 mg of PA) replaced the same quantity of olive oil (olive oil used: 4.50%). • 5th group: treated with N-oleoyl-ethanolamine+lysophosphatidic acid prepared as described in example 3: (NOE+LPA); the animals were given the same diet as the controls for 20 days, except that 150 mg of the preparation described in example 3 (containing ˜50 mg of NOE and 100 mg of LPA) replaced the same quantity of olive oil (olive oil used: 4.75%). • 6th group: treated with “phosphobioflavonic complexes” of N-oleoyl-phosphatidylethanolamine and green tea bioflavones (B.F.) prepared as described in example 6 (NOPE+B.F.). The animals were given the same diet as the controls for 20 days, except that 50 mg of NOPE and 25 mg of B.F. (corresponding to ˜75 mg of the preparation described in example 6) replaced the same quantity of olive oil (olive oil used: 4.825%). • 7th group: treated with green tea bioflavones (B.F.). The animals were given the same diet as the controls for 20 days, except that 25 mg of B.F. replaced the same quantity of olive oil (olive oil used: 4.875%).
Malonyldialdehyde is assayed in accordance with the procedure described by K. Yagi et al., 1982, in “Lipid Peroxides in Biology and Medicine”, Academic Press, New York, 99.324-340.

The test system of a further experiment is ghost erythrocytes. Description: Membrane fluidity of ghost erythrocytes (TMA-DPH fluorescent probe) of rats on a high-calorie, high-fat, high-cholesterol diet. It is filed as in vivo, rat. The settings on record: expressed as a % of the control values at time 0; rats after 20 day diet treatment, substance in the diet. As to the method:
as §1
(§3) 80 Male rats weighing 150-200 g each were used. […] The animals were given the same diet as the controls for 20 days, except that 50 mg of NOPE and 25 mg of B.F. (corresponding to ˜75 mg of the preparation described in example 6) replaced the same quantity of olive oil (olive oil used: 4.825%). • 7th group: treated with green tea bioflavones (B.F.). The animals were given the same diet as the controls for 20 days, except that 25 mg of B.F. replaced the same quantity of olive oil (olive oil used: 4.875%). […]

Experiment [2] in a line: Plasma total cholesterol, HDL cholesterol and triglyceride levels of rats on the diet. To be noted: rats after 20 day diet treatment. In kind it is in vivo, rat. How it is done:
as §1, §2

Experiment [3] can be described thus: Diet treatment tests carried out on man. It is filed as in vivo. The settings on record: oral administration. The source says: A series of experimental tests on rats and clinical tests on man have been carried out to study the pharmacological and/or dietetic characteristics of the composition of the invention.
In all the diet treatment tests carried out on man, the effects obtainable by orally the formulations claimed by the invention (NAPE; NAE+PA; NAE+LPA; NAPE+B.F. and NAE plus PA and/or LPA+B.F.) always provided highly significant results and advantages, both in preventing biological signs of aging (improvement in mitochondrial activity, better membrane fluidity, improvement in plasma antioxidant defences, and limited weight increase) and improving the clinical parameters tested in relation to prevention of aging, and many of the metabolic disorders associated therewith.

The test system of experiment [4] is hepatic mitochondria. Put plainly: Functionality of hepatic mitochondria: hepatocellular O2 consumption. In kind it is in vivo, rat. The settings on record: rats after 20 day diet treatment. How it is done:
as §1, §3

Experiment [5] is described as follows: Variation in body weight of rats on the diet. It is filed as in vivo, rat. To be noted: rats after 20 day diet treatment. As to the method:
as §1
(§4) 80 Male rats weighing 150-200 g each were used. […] The animals were given the same diet as the controls for 20 days, except that 50 mg of NOPE and 25 mg of B.F. (corresponding to ˜75 mg of the preparation described in example 6) replaced the same quantity of olive oil (olive oil used: 4.825%). • 7th group: treated with green tea bioflavones (B.F.). The animals were given the same diet as the controls for 20 days, except that 25 mg of B.F. replaced the same quantity of olive oil (olive oil used: 4.875%).

The next experiment concerns plasma platelets. Put plainly: Membrane fluidity of plasma platelets (TMA-DPH fluorescent probe) of rats on a high-calorie, high-fat, high-cholesterol diet. It is filed as in vivo, rat. To be noted: expressed as a % of the control values at time 0; rats after 20 day diet treatment, substance in the diet. How it is done:
as §1, §3

Experiment [6] relates to hepatic mitochondria. Description: Functionality of hepatic mitochondria: reduced hepatocellular glutathione content. To be noted: rats after 20 day diet treatment. In kind it is in vivo, rat. How it is done: as §1, §3
Experiment [7] has as its system hepatic mitochondria. Put plainly: Functionality of hepatic mitochondria: mitochondrial membrane potential. It is filed as in vivo, rat. To be noted: control rats at time 0 = 100%; rats after 20 day diet treatment. As to the method: as §1, §3
Experiment [8] can be described thus: Experimental tests on rats, 20 day diet treatment: overall assessment of Tables I-IV. To be noted: oral administration, 20 days. In kind it is in vivo, rat. How it is done:
as §1, §4

2 compounds from patent publication US9789127B2, “N-acyl-phosphatidyl-ethanolamines and/or mixtures of N-acyl-ethanolamines with phosphatidic acids or lysophosphatidic acids” (HUNZA DI PISTOLESI ELVIRA & C. S.A.S., priority 2003, dated 2017) can be followed below.

On to `CCCCCCCC/C=C\CCCCCCCC(=O)NCCO` [NOE, N-oleoyl-ethanolamine], for which, in experiment [1], the “MDA BRAIN” value is recorded as 106 ± 7 nmoles of malonyldialdehyde (MDA) per gram of tissue, the “MDA HEART” value is listed as 44 ± 9 nmoles of malonyldialdehyde (MDA) per gram of tissue, the “MDA LIVER” value was 44.1 ± 8.2 nmoles of malonyldialdehyde (MDA) per gram of tissue and the “MDA PLASMA” value is given as 5.0 ± 0.6 nmoles of malonyldialdehyde (M. Besides, in the experiment with ghost erythrocytes, the “Membrane fluidity (ghost erythrocytes)” value stood at 72%. In experiment [2], this compound had an HDL cholesterol of 28.9 ± 2.8 mg/dL, a Total cholesterol of 120.4 ± 12.7 mg/dL and a Total triglycerides of 80.5 ± 6.8 mg/dL. For the same compound, the “Benefit in preventing biological signs of aging and improving clinical parameters” value in [3] is “no significant benefit”. In addition, the “Hepatocellular O2 consumption” value in the experiment with hepatic mitochondria [4] is listed as 368 ± 52 umoles O2/min per 10^7 cells. The same compound gave a Body weight in experiment [5] of 221 ± 16 gm. In the experiment on plasma platelets, the “Membrane fluidity (plasma platelets)” value is 70%. In the experiment on hepatic mitochondria [6], this compound registered a Reduced glutathione of 36 ± 6 nmoles × 10^6 cells. This compound also had a Mitochondrial membrane potential with hepatic mitochondria [7] of 70%. Also, in experiment [8], the “Statistical significance of the effects of Tables I-IV (membrane fluidity, antioxidant defences, body weight, cholesterol and triglycerides, mitochondria)” value is listed as “no statistically significant benefit”.

“N-oleoyl-phosphatidylethanolamine [NOPE]”: in experiment [1], the “MDA BRAIN” value was 85 ± 9 nmoles of malonyldialdehyde (MDA) per gram of tissue, the “MDA HEART” value is 32 ± 7 nmoles of malonyldialdehyde (MDA) per gram of tissue, the “MDA LIVER” value is reported as 33.1 ± 6.5 nmoles of malonyldialdehyde (MDA) per gram of tissue and the “MDA PLASMA” value is on record as 3.8 ± 0.4 nmoles of malonyldialdehyde (M. Also, the “Membrane fluidity (ghost erythrocytes)” value in the experiment with ghost erythrocytes came to 84%. In [2], this compound had an HDL cholesterol of 31.6 ± 3.9 mg/dL, a Total cholesterol of 110.3 ± 10.1 mg/dL and a Total triglycerides of 71.4 ± 8.7 mg/dL. Moreover, in the experiment with hepatic mitochondria [4], the “Hepatocellular O2 consumption” value is recorded as 408 ± 62 umoles O2/min per 10^7 cells. This compound also showed a Body weight in [5] of 209 ± 18 gm. Further, in the experiment on plasma platelets, the “Membrane fluidity (plasma platelets)” value is reported as 81%. In addition, the Reduced glutathione in the experiment with hepatic mitochondria [6] turned out to be 41 ± 5 nmoles × 10^6 cells. Further, the Mitochondrial membrane potential in the experiment on hepatic mitochondria [7] was found to be 81%. Further, the “Statistical significance of the effects of Tables I-IV (membrane fluidity, antioxidant defences, body weight, cholesterol and triglycerides, mitochondria)” value in experiment [8] is recorded as “always statistically significant”.
